Data set [1] concerns the target T1, Eukaryotic translation initiation factor 2-alpha kinase 3 (Homo sapiens, UniProt Q9NZJ5).
T1 sequence (Q9NZJ5 whole entry): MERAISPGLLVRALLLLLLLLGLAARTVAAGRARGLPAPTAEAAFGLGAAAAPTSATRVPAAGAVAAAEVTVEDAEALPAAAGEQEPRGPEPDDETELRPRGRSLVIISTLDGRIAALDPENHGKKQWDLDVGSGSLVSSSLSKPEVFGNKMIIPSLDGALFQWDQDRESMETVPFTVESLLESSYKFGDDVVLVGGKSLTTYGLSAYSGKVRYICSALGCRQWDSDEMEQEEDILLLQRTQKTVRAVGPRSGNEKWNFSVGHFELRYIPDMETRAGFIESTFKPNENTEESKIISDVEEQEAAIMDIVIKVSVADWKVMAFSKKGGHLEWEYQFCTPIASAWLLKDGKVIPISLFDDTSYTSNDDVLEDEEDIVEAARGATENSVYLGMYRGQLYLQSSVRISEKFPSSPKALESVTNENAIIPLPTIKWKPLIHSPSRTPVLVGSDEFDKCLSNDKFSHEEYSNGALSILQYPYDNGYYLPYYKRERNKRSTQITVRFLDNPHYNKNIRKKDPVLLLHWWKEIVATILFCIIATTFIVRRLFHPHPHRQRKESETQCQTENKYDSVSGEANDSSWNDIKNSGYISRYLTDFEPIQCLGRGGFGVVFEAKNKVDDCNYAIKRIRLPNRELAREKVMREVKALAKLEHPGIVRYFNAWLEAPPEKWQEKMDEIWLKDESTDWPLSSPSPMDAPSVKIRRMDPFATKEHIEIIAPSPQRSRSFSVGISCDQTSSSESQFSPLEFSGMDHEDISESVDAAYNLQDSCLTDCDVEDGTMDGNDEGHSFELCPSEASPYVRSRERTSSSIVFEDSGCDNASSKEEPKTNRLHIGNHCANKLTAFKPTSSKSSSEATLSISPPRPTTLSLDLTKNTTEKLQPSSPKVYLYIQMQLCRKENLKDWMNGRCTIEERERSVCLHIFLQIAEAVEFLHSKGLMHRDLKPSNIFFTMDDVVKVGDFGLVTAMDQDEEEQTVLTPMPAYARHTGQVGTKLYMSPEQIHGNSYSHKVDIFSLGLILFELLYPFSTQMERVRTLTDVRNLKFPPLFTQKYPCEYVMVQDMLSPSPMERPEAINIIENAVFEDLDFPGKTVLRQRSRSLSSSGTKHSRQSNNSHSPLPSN
The experiment in a line: Inhibition of thapsigargin-induced autophosphorylation of PERK in human A549 cells preincubated for 1 hr followed by thapsigargin-induction measured after 1 hr by Western blotting analysis. The data set is classed as cell-based. A general note: In western blotting, separated proteins are transferred to a membrane and probed.

The target of data set [2] is T1, Eukaryotic translation initiation factor 2-alpha kinase 3. The data set can be described thus: Inhibition of GST-tagged PERK cytoplasmic domain (536 to 1116) (unknown origin) assessed as biotinylated His6-tagged EIF2alpha phosphorylation preincubated for 30 mins followed by ATP and eIF2alpha addition measured after 1 hr by HTRF assay. (In general: TR-FRET usually uses a lanthanide donor and a delayed reading to cut background.)

Data set [3] is described as follows: Blood clearance in Sprague-Dawley rat at 2.2 mg/kg, iv by LC-MS/MS analysis. The data set is classed as ADME, organism-based. Further details: dose 2.2 mg/kg, route intravenous. Conditions: whole blood.
Data set [4] addresses Interferon-induced, double-stranded RNA-activated protein kinase (Homo sapiens, UniProt P19525). The data set can be described thus: Inhibition of PKR (unknown origin) assessed as EIF2AK2 phosphorylation.
In a further data set the target is T2, Cytochrome P450 1A2 (Homo sapiens, UniProt P05177).
T2 sequence (P05177 whole entry): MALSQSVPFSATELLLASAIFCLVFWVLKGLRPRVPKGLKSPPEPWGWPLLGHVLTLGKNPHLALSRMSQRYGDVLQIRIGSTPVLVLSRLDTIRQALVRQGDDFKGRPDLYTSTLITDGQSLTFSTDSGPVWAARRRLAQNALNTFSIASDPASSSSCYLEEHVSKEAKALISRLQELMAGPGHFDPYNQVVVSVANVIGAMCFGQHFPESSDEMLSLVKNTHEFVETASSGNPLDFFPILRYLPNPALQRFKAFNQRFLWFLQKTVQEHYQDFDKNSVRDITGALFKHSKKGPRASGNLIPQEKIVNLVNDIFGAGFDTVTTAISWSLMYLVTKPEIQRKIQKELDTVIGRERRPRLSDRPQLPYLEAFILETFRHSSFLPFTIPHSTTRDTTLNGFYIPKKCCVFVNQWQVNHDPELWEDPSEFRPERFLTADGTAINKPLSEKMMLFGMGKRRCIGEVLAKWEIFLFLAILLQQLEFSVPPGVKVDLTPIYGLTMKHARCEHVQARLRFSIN
The data set can be described thus: Inhibition of CYP1A2 in human liver microsomes using phenacetin as substrate after 5 to 60 mins by LC-MS/MS analysis. The data set is classed as ADME, Microsome. (In general: Microsomes from liver hold many membrane-bound enzymes, among them those of drug oxidation.)

The target in data set [5] is Eukaryotic translation initiation factor 2-alpha kinase 1 (Homo sapiens, UniProt Q9BQI3). The experiment in a line: Inhibition of HRI (unknown origin) assessed as EIF2AK1 phosphorylation.
Eukaryotic translation initiation factor 2-alpha kinase 1, sequence (Q9BQI3 whole entry): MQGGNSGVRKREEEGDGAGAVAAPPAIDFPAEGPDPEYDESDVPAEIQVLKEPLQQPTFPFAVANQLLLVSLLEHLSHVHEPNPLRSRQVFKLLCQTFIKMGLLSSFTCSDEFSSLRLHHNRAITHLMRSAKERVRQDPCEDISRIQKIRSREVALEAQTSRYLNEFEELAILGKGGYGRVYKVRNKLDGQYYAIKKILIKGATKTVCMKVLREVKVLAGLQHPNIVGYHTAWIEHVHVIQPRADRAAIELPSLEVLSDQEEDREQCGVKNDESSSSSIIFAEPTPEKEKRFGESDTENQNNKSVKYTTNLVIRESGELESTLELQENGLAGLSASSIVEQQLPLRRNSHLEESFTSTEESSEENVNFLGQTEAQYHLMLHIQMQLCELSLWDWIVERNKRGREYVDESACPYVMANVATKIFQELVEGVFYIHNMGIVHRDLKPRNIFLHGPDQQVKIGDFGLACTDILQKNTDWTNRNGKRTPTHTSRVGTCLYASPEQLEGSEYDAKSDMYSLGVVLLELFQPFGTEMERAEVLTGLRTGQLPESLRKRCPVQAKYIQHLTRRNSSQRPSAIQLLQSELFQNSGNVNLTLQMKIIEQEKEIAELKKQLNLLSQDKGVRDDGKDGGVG
The target in the next data set is Cytochrome P450 2C9 (Homo sapiens, UniProt P11712). The experiment in a line: Inhibition of CYP2C9 in human liver microsomes using diclofenac as substrate after 5 to 60 mins by LC-MS/MS analysis. The data set is classed as ADME, Microsome.
Cytochrome P450 2C9, sequence (P11712 whole entry): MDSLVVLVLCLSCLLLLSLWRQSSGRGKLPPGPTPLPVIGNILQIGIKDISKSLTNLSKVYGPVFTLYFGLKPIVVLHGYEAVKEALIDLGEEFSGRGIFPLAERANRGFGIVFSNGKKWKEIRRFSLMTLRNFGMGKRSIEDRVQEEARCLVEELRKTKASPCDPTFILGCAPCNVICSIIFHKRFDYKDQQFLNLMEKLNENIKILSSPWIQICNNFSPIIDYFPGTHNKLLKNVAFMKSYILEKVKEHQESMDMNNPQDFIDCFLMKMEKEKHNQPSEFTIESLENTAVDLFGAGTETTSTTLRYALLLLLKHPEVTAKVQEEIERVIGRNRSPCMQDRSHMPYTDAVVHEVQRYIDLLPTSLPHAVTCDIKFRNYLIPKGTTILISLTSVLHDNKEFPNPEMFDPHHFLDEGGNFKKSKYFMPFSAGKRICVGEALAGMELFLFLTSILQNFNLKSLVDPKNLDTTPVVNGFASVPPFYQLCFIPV
A further data set deals with eIF-2-alpha kinase GCN2 (Homo sapiens, UniProt Q9P2K8). The data set can be described thus: Inhibition of GCN2 (unknown origin) assessed as EIF2AK4 phosphorylation.
eIF-2-alpha kinase GCN2, sequence (Q9P2K8 whole entry): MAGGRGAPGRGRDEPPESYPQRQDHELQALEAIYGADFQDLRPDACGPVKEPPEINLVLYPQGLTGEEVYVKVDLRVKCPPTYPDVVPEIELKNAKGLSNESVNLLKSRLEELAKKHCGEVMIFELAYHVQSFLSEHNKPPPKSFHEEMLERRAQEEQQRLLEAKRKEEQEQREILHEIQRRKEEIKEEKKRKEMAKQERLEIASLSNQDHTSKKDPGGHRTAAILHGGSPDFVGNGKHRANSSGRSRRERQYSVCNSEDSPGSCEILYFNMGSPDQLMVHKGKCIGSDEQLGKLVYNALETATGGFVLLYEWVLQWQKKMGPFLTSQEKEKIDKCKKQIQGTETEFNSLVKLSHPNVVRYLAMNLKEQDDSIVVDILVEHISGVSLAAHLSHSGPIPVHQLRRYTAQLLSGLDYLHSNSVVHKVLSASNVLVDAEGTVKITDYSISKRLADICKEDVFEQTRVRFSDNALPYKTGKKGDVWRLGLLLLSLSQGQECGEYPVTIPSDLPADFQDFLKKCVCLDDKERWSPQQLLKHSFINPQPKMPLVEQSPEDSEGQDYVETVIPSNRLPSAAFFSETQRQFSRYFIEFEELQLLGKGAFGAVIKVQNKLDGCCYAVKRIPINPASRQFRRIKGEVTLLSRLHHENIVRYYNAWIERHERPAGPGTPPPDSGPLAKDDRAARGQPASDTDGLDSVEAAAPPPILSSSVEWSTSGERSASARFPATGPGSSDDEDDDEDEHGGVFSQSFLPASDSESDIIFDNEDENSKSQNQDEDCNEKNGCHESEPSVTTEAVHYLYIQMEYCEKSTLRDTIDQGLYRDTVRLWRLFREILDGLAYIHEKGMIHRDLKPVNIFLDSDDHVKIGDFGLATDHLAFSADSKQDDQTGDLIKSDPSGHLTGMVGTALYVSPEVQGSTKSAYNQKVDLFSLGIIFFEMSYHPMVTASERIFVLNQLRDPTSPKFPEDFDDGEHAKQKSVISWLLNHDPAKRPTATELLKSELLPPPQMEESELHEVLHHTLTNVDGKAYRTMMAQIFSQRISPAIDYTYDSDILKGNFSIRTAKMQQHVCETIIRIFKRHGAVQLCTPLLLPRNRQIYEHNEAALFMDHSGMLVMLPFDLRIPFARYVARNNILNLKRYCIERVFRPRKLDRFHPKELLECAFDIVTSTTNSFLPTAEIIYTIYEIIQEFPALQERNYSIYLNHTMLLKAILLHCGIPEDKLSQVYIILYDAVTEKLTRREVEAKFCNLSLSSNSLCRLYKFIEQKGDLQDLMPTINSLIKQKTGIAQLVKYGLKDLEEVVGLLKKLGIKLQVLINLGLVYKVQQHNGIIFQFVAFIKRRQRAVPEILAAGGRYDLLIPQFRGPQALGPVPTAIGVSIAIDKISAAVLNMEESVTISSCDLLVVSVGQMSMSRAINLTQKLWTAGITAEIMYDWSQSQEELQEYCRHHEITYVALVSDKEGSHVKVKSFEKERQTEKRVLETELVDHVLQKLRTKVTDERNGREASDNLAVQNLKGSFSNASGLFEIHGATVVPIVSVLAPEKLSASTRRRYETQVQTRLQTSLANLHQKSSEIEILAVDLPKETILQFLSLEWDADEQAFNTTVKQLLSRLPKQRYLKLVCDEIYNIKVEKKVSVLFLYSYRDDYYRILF
In data set [6] the target is T3, Cytochrome P450 3A4 (Homo sapiens, UniProt P08684). The data set can be described thus: Inhibition of CYP3A4 in human liver microsomes using midazolam as substrate after 5 to 60 mins by LC-MS/MS analysis. The data set is classed as ADME, Microsome.
T3 sequence (P08684 whole entry): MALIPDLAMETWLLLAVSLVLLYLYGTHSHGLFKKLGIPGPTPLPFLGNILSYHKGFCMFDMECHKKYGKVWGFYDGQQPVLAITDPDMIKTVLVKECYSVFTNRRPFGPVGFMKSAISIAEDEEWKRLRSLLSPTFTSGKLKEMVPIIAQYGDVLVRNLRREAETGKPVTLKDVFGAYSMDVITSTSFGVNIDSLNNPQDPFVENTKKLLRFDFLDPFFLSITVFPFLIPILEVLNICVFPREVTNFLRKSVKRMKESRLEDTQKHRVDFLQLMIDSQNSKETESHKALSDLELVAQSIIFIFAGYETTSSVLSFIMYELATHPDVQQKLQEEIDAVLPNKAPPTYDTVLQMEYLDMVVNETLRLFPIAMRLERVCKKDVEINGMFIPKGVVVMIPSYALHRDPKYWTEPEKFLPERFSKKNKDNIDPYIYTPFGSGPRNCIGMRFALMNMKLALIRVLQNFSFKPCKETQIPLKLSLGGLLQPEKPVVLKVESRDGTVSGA
Data set [7] deals with T3, Cytochrome P450 3A4. The data set can be described thus: Inhibition of CYP3A4 in human liver microsomes using nifedipine as substrate after 5 to 60 mins by LC-MS/MS analysis. The data set is classed as ADME, Microsome.
A further data set deals with T4, Cytochrome P450 2C8 (Homo sapiens, UniProt P10632).
T4 sequence (P10632 whole entry): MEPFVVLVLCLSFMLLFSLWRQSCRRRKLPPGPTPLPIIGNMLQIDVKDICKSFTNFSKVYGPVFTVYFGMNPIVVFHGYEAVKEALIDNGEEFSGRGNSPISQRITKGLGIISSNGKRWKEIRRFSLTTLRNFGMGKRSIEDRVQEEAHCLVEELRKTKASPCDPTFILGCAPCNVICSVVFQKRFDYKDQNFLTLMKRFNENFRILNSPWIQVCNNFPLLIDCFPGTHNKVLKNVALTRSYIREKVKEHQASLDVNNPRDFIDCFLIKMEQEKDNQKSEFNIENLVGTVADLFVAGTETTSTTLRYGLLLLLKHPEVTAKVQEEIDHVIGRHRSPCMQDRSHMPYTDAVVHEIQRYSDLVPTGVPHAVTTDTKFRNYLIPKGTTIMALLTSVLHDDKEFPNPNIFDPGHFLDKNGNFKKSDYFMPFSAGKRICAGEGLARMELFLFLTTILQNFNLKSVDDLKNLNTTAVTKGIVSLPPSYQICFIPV
The data set can be described thus: Inhibition of CYP2C8 in human liver microsomes using paclitaxel as substrate after 5 to 60 mins by LC-MS/MS analysis. The data set is classed as ADME, Microsome.

The next data set concerns the target Cytochrome P450 2C19 (Homo sapiens, UniProt P33261). The experiment in a line: Inhibition of CYP2C19 in human liver microsomes using mephenytoin as substrate after 5 to 60 mins by LC-MS/MS analysis. The data set is classed as ADME, Microsome.
Data set [8] addresses T5, Cytochrome P450 2D6 (Homo sapiens, UniProt P10635). The data set can be described thus: Inhibition of CYP2D6 in human liver microsomes using bufuralol as substrate after 5 to 60 mins by LC-MS/MS analysis. The data set is classed as ADME, Microsome.
Data set [9] has as its target T5, Cytochrome P450 2D6. The experiment in a line: Inhibition of CYP2D6 in human liver microsomes using dextromethorphan as substrate after 5 to 60 mins by LC-MS/MS analysis. The data set is classed as ADME, Microsome.

Cytochrome P450 2C19, sequence (P33261 whole entry): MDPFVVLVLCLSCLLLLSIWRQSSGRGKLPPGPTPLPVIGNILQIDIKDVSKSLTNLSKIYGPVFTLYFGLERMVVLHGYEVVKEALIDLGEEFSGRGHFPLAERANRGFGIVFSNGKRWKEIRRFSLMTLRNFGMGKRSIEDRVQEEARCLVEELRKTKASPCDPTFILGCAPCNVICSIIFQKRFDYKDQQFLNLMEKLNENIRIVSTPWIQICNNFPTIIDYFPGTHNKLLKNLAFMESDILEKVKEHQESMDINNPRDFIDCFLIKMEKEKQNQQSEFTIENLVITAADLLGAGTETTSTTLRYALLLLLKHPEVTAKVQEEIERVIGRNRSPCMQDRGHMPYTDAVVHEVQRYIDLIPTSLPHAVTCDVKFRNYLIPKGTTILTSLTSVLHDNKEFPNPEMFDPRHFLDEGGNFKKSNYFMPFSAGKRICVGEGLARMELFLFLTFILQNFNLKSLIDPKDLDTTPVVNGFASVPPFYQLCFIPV
T5 sequence (P10635 whole entry): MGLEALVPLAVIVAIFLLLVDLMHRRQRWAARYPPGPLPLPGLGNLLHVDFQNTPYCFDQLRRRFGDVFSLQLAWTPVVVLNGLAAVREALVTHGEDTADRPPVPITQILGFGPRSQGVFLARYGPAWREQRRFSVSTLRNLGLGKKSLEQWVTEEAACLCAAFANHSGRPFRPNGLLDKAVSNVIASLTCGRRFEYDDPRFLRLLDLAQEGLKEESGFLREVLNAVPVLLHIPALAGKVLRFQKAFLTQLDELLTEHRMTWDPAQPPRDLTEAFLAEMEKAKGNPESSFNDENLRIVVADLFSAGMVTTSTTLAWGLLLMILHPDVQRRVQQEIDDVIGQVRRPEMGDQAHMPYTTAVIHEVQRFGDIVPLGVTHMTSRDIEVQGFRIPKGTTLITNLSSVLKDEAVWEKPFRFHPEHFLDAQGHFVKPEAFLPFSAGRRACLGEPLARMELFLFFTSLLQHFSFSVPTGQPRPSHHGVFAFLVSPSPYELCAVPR
Interferon-induced, double-stranded RNA-activated protein kinase, sequence (P19525 whole entry): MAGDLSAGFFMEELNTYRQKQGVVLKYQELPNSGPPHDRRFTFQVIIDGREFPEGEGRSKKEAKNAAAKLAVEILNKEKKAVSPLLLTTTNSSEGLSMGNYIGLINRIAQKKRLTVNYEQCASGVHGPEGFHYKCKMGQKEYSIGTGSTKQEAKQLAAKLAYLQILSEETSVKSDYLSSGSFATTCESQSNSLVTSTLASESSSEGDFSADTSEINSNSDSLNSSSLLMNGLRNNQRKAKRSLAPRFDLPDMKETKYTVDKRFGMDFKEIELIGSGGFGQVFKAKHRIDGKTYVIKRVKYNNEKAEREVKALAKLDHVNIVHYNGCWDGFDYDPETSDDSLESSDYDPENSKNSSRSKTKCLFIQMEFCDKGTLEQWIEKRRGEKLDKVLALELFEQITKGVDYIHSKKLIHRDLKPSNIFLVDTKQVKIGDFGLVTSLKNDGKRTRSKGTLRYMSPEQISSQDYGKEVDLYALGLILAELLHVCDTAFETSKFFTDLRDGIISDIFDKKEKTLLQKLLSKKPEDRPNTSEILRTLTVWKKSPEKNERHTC

The IC50 is the concentration at which inhibition is half-maximal. What is called clearance is the rate of elimination divided by the concentration. A lower clearance goes with a low capacity for elimination. For `Cn1cc(-c2ccc3c(c2)CCN3C(=O)Cc2cccc(C(F)(F)F)n2)c2c(N)ncnc21`, the IC50 worked out at 30 nM in data set [1] and 0.5 nM in data set [2]. The same compound gave a clearance in [3] of 12.8 mL/min/kg.

Turning to `Cn1cc(-c2ccc3c(c2)CCN3C(=O)Cc2ccncc2)c2c(N)ncnc21`, the concentration for half-maximal inhibition (IC50) in data set [2] was 63.8 nM.

Take `Cn1cc(-c2ccc3c(c2F)CCN3C(=O)Cc2cccc(C(F)(F)F)n2)c2c(N)ncnc21`: the IC50 in [4] was 359 nM; in data set [1] it was below 30 nM; at Cytochrome P450 1A2 it was above 25000 nM; in data set [5], 37 nM; against Cytochrome P450 2C9 it was 19200 nM; at eIF-2-alpha kinase GCN2, 776 nM. For the same compound, the IC50 was 9090 nM at Cytochrome P450 3A4 [6]; 7400 nM against Cytochrome P450 3A4 [7]; 5830 nM on Cytochrome P450 2C8; above 25000 nM on Cytochrome P450 2C19; 0.5 nM in data set [2]; 23700 nM against Cytochrome P450 2D6 [8]. Besides, the clearance in data set [3] is 8.9 mL/min/kg.

With `Cc1cccc(CC(=O)N2CCc3cc(-c4cn(C)c5ncnc(N)c45)ccc32)n1`, the figures for the IC50 in data set [1] and in data set [2] were 100 nM and 2.5 nM, respectively. Further, in [3], the clearance came to 10.5 mL/min/kg.

With `Cc1ccn(CC(=O)N2CCc3cc(-c4cn(C)c5ncnc(N)c45)ccc32)n1`, the half-maximal inhibitory concentration (IC50) in [2] came out at 57.5 nM.

Consider `Cn1cc(-c2ccc3c(c2)CCN3C(=O)Cc2cccc(C(F)(F)F)c2)c2c(N)ncnc21`, for which the 50% inhibitory concentration (IC50) on Cytochrome P450 1A2 worked out at 21000 nM; on Cytochrome P450 2C9, 4500 nM; against Cytochrome P450 2C8, 890 nM; at Cytochrome P450 2C19 it was 7000 nM; at Cytochrome P450 2D6 [9], 23000 nM. The clearance in data set [3] was found to be 21.5 mL/min/kg.

(Values after ChEMBL document CHEMBL2440009, “Discovery of GSK2656157: An Optimized PERK Inhibitor Selected for Preclinical Development” (ACS Med Chem Lett, 2013).)
